The structures appear in SMILES notation.

In assay [1] the target is T1, human SLC26A3 (DRA) (Homo sapiens, UniProt P40879).
T1 construct: expressed in transfected cells; host or cells: Xenopus laevis oocytes (SLC26A3-injected)
T1 sequence (P40879 1-764): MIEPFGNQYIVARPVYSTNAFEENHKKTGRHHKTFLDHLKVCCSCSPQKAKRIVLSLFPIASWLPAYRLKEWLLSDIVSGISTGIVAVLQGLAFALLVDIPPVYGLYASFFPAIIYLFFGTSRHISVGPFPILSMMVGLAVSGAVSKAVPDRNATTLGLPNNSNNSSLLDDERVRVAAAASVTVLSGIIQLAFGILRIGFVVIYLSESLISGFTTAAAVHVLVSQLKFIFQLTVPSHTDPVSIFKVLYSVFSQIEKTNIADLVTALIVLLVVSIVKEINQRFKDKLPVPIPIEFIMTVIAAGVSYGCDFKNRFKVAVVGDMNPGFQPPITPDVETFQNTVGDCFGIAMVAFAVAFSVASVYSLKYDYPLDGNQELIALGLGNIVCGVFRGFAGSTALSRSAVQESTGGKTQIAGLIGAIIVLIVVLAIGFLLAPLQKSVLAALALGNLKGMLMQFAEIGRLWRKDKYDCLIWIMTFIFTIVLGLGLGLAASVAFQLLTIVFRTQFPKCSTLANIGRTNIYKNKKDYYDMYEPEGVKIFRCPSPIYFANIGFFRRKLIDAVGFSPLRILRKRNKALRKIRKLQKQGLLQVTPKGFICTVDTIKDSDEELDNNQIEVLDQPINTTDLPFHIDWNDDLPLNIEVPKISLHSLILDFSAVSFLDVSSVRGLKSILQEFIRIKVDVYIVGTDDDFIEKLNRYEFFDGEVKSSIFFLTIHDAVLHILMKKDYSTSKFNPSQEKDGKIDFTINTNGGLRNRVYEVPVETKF
Kind of assay: Cis-inhibition of 36Cl uptake in oocytes expressing human SLC26A3 (DRA). As to conditions: 10 mM anion (FIG. 19). Format: cell-based. The source says:
FIG. 19 depicts cis-inhibition of ^36Cl^− uptake by various anions in oocytes expressing human SLC26A3 (DRA).
The SLC26A6 exchanger is a likely mediator of intestinal oxalate absorption and thus a potential therapeutic target in calcium-oxalate stone disease. Intestinal expression of the SLC26A3 or DRA protein is also robust, in keeping with the genetic role of SLC26A3 in congenital chloride-losing diarrhea. Hoglund, P. et al., 1996. […] Scott, D. A., et al., 1999; Scott, D.A. & Karniski, L. P., 2000.

Assay [2] has as its target T2, rat DTDST (Rattus norvegicus, UniProt O70531).
T2 sequence (O70531 1-739): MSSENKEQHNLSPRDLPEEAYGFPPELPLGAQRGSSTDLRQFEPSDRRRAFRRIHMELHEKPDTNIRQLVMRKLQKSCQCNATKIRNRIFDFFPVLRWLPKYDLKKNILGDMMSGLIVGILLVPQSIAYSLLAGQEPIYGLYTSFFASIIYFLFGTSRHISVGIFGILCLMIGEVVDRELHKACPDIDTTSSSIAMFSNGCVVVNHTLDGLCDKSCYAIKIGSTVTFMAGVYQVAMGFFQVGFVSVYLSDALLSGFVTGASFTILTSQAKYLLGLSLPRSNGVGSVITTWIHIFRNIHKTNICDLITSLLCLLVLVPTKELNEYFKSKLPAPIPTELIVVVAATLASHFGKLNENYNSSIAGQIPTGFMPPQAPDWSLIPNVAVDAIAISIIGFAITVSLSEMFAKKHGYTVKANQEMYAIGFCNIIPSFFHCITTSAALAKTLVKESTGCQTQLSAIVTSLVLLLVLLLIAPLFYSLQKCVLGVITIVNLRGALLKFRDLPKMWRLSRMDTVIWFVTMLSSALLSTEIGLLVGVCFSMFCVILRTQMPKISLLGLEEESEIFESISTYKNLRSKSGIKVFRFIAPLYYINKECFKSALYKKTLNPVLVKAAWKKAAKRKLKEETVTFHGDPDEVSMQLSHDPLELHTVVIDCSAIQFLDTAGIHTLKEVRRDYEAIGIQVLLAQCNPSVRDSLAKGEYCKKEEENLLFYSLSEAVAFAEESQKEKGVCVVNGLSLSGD
The settings on record: Satoh, 1998; cited from earlier work.

As to `O=C(O)C(=O)O` [oxalate], the “oxalate transport inferred from cis-inhibition of Cl transport” value in assay [1] is listed as “minimal if any”. Also, the “cis-inhibition of sulphate transport” value in assay [2] is on record as “cis-inhibited”.

The record behind these values is patent US20060014940A1, “Cloning and characterization of slc26a6, slc26a1, and slc26a2 anion exchangers” (priority 2002, published 2006).
